Test results from PMC3454376, “Salidroside Improves Behavioral and Histological Outcomes and Reduces Apoptosis via PI3K/Akt Signaling after Experimental Traumatic Brain Injury” (PLoS ONE, 2012).

Assays:
[1] = system: mice subjected to controlled cortical impact injury; assay: Fluoro-Jade B staining of degenerating neurons; type: in vivo; details: day 1
Experimental: All animal procedures were approved by the Animal Research Committee at Cheng Hsin General Hospital (Animal permit number […] 101-08), and all procedures complied with the Guide for the Care and Use of Laboratory Animals published by the US National Institutes of Health (NIH Publication No. 85-23, revised 1996). Animals were housed under a 12-h light/dark cycle and at constant temperature (21-25°C) and humidity (45-50%). They were allowed free access to pellet chow and water. TBI in mice was induced by a CCI injury model as previously described. Briefly, 8-week-old male C57BL/6 mice (weighing 22-25 g) were anesthetized through the use of intraperitoneal injection of sodium pentobarbital (65 mg/kg; Rhone Merieux, Harlow, UK) and placed in a stereotaxic frame. A 5 mm craniotomy was performed over the right parietal cortex, centered on the coronal suture and 0.1 mm lateral to the sagittal suture, and injury to dura was avoided. Injury was induced using a pneumatic piston with a rounded metal tip (2.5 mm diameter) that was angled 22.5° to the vertical so that the tip was perpendicular with the brain surface at the center of the craniotomy. The impact, with a velocity of […] and a deformation depth of 2 mm below the dura, was applied. The bone flap was immediately replaced and sealed, and the scalp was sutured. Body temperature was monitored throughout the surgery by a rectal probe; temperature was maintained at 37.0±0.5°C using a heated pad. Mice were placed in a heated cage to maintain body temperature, while recovering from anesthesia. Sham-operated mice underwent the same procedure as injured mice, but without CCI. Three sets of experiments were performed. The first set was to investigate the protective effects of salidroside. All animals were randomized into 1 of 3 groups (sham injury, CCI + vehicle, CCI + SALD 20). Surgery/injury, behavioral testing, and tissue analyses were performed by different individuals. Behavioral testing and tissue analyses were performed by individuals blinded to the treatment group. Salidroside (Cayman Chemical, Ann Arbor, MI, USA) dissolved in normal saline (0.25 mL) or a corresponding volume of vehicle (saline) was administered intraperitoneally 10 min following injury. Testing after injury was completed as follows: 1) behavioral testing at days 1, 4, 7, 14, 21, and 28 (n = 8-10 mice/group); 2) cresyl violet staining at day 28 (n = 9 mice/group); 3) histology, determination of brain water content, and western blot analysis at day 1 or 3 (n = 5-6 mice/group). To determine the optimal dose of salidroside, a pilot study was performed using 2 different doses (20 and 50 mg/kg) administered 10 min after injury, and neurological deficits and tissue damage were evaluated as the main outcomes. […] The second set of experiment was to assess the effect of the inhibition of PI3K/Akt with the specific PI3K inhibitor, LY294002 (Cell Signaling Technology, Danvers, MA, USA), on salidroside effects. Animals were randomized into 4 groups. Mice received either: 1) icv pretreatment of LY294002 followed by SALD 20 after CCI (S20Y group); or 2) icv pretreatment of saline (vehicle control) followed by SALD 20 after CCI (S20V group). 3) Mice were infused icv with saline and were subjected to sham injury. 4) Mice were infused icv with LY294002 and were subjected to sham injury. Testing after injury was completed as follows: 1) cresyl violet staining at day 28 (n = 6 mice/group); 2) western blot analysis at day 1 (n = 6 mice/group). The third set of experiment was performed to examine the neuroprotective time window afforded by salidroside. Mice received intraperitoneal SALD 20 or vehicle (saline) at 3 or 6 h following CCI and were sacrificed 1 day later for FJB staining and western blot analysis (n = 6 mice/group). […]

[2] = system: mice subjected to controlled cortical impact injury; assay: Contusion volume, cresyl violet staining; type: in vivo; details: day 28; for contusion volume: vehicle 13.5±4.0
Experimental: All animal procedures were approved by the Animal Research Committee at Cheng Hsin General Hospital (Animal permit number […] 101-08), and all procedures complied with the Guide for the Care and Use of Laboratory Animals published by the US National Institutes of Health (NIH Publication No. 85-23, revised 1996). Animals were housed under a 12-h light/dark cycle and at constant temperature (21-25°C) and humidity (45-50%). They were allowed free access to pellet chow and water. TBI in mice was induced by a CCI injury model as previously described. Briefly, 8-week-old male C57BL/6 mice (weighing 22-25 g) were anesthetized through the use of intraperitoneal injection of sodium pentobarbital (65 mg/kg; Rhone Merieux, Harlow, UK) and placed in a stereotaxic frame. A 5 mm craniotomy was performed over the right parietal cortex, centered on the coronal suture and 0.1 mm lateral to the sagittal suture, and injury to dura was avoided. Injury was induced using a pneumatic piston with a rounded metal tip (2.5 mm diameter) that was angled 22.5° to the vertical so that the tip was perpendicular with the brain surface at the center of the craniotomy. The impact, with a velocity of […] and a deformation depth of 2 mm below the dura, was applied. The bone flap was immediately replaced and sealed, and the scalp was sutured. Body temperature was monitored throughout the surgery by a rectal probe; temperature was maintained at 37.0±0.5°C using a heated pad. Mice were placed in a heated cage to maintain body temperature, while recovering from anesthesia. Sham-operated mice underwent the same procedure as injured mice, but without CCI. Three sets of experiments were performed. The first set was to investigate the protective effects of salidroside. All animals were randomized into 1 of 3 groups (sham injury, CCI + vehicle, CCI + SALD 20). […] To determine the optimal dose of salidroside, a pilot study was performed using 2 different doses (20 and 50 mg/kg) administered 10 min after injury, and neurological deficits and tissue damage were evaluated as the main outcomes. […]

OC[C@H]1O[C@@H](OCCc2ccc(O)cc2)[C@H](O)[C@@H](O)[C@@H]1O [SALD, salidroside]
FJB-positive neurons around the injured cortical area ([1]; 20 mg/kg ip 10 min after CCI, vehicle 87.9±5.9, P<0.01): 55.1±6.9 cells/field
reduction of the number of FJB-positive neurons ([1]; 20 mg/kg ip 10 min after injury): 37.3%
reduction of neuronal damage (FJB) ([1]; 20 mg/kg ip 3 h after injury): 21.9%
FJB-positive neurons around the injured cortical area ([1]; 20 mg/kg ip 3 h after injury, vehicle 91.2±3.3, P<0.001): 71.2±2.7 cells/field
reduction of neuronal damage (FJB) ([1]; 20 mg/kg ip 6 h after injury): 22.8%
FJB-positive neurons around the injured cortical area ([1]; 20 mg/kg ip 6 h after injury, vehicle 92.9±3.3, P<0.001): 71.7±1.6 cells/field
contusion volume as % of the vehicle group ([2]; 20 mg/kg ip 10 min after CCI): 73.8%
contusion volume ([2]; 20 mg/kg ip 10 min after CCI, P<0.05): 9.9±1.1 mm^3
contusion volume ([2]; 50 mg/kg ip 10 min after CCI, P>0.05): 11.7±3.2 mm^3
